Test results taken from PubChem BioAssay (NCI).
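The compound was tested at five concentrations on cells cultured in 96-well plates, with a 48-hour exposure period. TGI: concentration producing complete growth inhibition.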

Legend:
Experiment in all cases: inhibition of tumour cell growth, NCI panel, 48 h
SF-539 CNS = system: SF-539 CNS
NCI-H522 lung = system: NCI-H522 lung
SR leukemia = system: SR leukemia
EKVX NSCLC = system: EKVX NSCLC
HOP-62 NSCLC = system: HOP-62 NSCLC
NCI-H226 lung = system: NCI-H226 lung
MOLT-4 leukemia = system: MOLT-4 leukemia
UACC-257 melanoma = system: UACC-257 melanoma
IGROV1 ovarian = system: IGROV1 ovarian
K-562 leukemia = system: K-562 leukemia
TK-10 renal = system: TK-10 renal
ACHN renal = system: ACHN renal
SK-MEL-2 melanoma = system: SK-MEL-2 melanoma
HCT-15 colon = system: HCT-15 colon
RXF 393 renal = system: RXF 393 renal
HCT-116 colon = system: HCT-116 colon
MDA-MB-435 = system: MDA-MB-435
SNB-75 CNS = system: SNB-75 CNS
PC-3 prostate = system: PC-3 prostate
MCF7 breast = system: MCF7 breast
OVCAR-4 ovarian = system: OVCAR-4 ovarian
U251 CNS = system: U251 CNS
HT29 colon = system: HT29 colon
SK-OV-3 ovarian = system: SK-OV-3 ovarian
M14 melanoma = system: M14 melanoma
CCRF-CEM leukemia = system: CCRF-CEM leukemia
UACC-62 melanoma = system: UACC-62 melanoma
SK-MEL-5 melanoma = system: SK-MEL-5 melanoma
786-0 renal = system: 786-0 renal
SN12C renal = system: SN12C renal
KM12 colon = system: KM12 colon
NCI/ADR-RES ovarian = system: NCI/ADR-RES ovarian
MDA-N = system: MDA-N
HCC-2998 colon = system: HCC-2998 colon
OVCAR-5 ovarian = system: OVCAR-5 ovarian
SF-268 CNS = system: SF-268 CNS
UO-31 renal = system: UO-31 renal
T-47D breast = system: T-47D breast
OVCAR-8 ovarian = system: OVCAR-8 ovarian
CAKI-1 renal = system: CAKI-1 renal
COLO 205 colon = system: COLO 205 colon
MDA-MB-231 breast = system: MDA-MB-231 breast
HS 578T breast = system: HS 578T breast
DU-145 prostate = system: DU-145 prostate
A549 NSCLC = system: A549 NSCLC
BT-549 breast = system: BT-549 breast
SNB-19 CNS = system: SNB-19 CNS
NCI-H23 lung = system: NCI-H23 lung
SF-295 CNS = system: SF-295 CNS
OVCAR-3 ovarian = system: OVCAR-3 ovarian
MALME-3M melanoma = system: MALME-3M melanoma
NCI-H460 lung = system: NCI-H460 lung
LOX IMVI melanoma = system: LOX IMVI melanoma
SK-MEL-28 melanoma = system: SK-MEL-28 melanoma
HL-60(TB) leukemia = system: HL-60(TB) leukemia
RPMI-8226 leukemia = system: RPMI-8226 leukemia

Measured: TGI

c1ccc2nn(C3CCCCO3)nc2c1 (stereo not given)
not listed: LOX IMVI melanoma | SK-MEL-28 melanoma | HL-60(TB) leukemia | RPMI-8226 leukemia
> 100 µM: all other assays above

S=C1CSc2c(cnc3ccccc23)N1
not listed: SF-539 CNS | SK-MEL-2 melanoma | HCC-2998 colon
> 100 µM: all other assays above
